Experimental data taken from patent US5565429A, “Peptides derived from trifluoromethylketones” (Adir et Compagnie, priority 1992, dated 1996).

Tests used:
[1] = molecular target: T1, human sputum leucocyte elastase (Homo sapiens, UniProt P08246); assay: In vivo inhibitory activity: model of acute hemorrhagic edema in hamsters; design: It is a glycoprotein of 25 to 30 kDa formed from 218 amino acids; from tissue; host or cells: human sputum (purified preparation); details: hamster, 10 μg intratracheally 3 hours before elastase (50 units); hemoglobin in broncho-alveolar washing 3 hours after elastase
T1 sequence (P08246 30-247 limits assumed): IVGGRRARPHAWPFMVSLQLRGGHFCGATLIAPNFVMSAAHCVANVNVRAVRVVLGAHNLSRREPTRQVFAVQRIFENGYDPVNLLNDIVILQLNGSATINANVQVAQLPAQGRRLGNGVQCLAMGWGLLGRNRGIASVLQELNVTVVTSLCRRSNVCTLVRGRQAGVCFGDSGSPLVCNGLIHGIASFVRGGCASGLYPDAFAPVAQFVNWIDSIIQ
Experimental: In vivo inhibitory activity: model of acute hemorrhagic edema in hamsters
Tracheal instillation in hamsters of a purified preparation of human sputum leucocyte elastase leads to acute hemorrhaging which can be quantified by measuring the concentration of hemoglobin in the broncho-alveolar washing 3 hours after the elastase instillation.
The study is carried out on male hamsters weighing […] (Syrian Golden, n=10 per batch). The animals are anesthetized with pentobarbital at a dose of 40 mg/kg intraperitoneally.
The hamsters are anesthetized and the trachea is exposed surgically. The products to be tested are administered with the aid of a needle directly into the trachea in a volume of 0.1 ml at a dose of 10 μg. Human sputum leucocyte elastase is administered, 3 hours after administration of the product, intratracheally at a dose of 50 units per animal at a volume of 0.2 ml.
The animals are sacrificed with the aid of a lethal dose of pentobarbital 3 hours after instillation of elastase and a broncho-alveolar washing with physiological serum is carried out. The degree of hemorrhaging is quantified by a colorimetric method which makes it possible to quantitatively determine the hemoglobin concentration (Boehringer hemoglobin test combination).
The results are expressed in percentage of inhibition of hemorrhaging.

[2] = molecular target: T1, human sputum leucocyte elastase; assay: Inhibitory activity for human leucocyte elastase in vitro; assay type: biochemical; design: It is a glycoprotein of 25 to 30 kDa formed from 218 amino acids; purchased Elastin Products Co; host or cells: human sputum (natural enzyme); details: methoxysuccinyl-Ala-Ala-Pro-Val paranitroanilide substrate, 15 min incubation, 37° C., pH 7.8
Experimental: This activity is measured by following the kinetics of hydrolysis of the substrate which leads to the release of paranitroaniline which absorbs at a wavelength of 410 nm.
Enzyme: Human sputum leucocyte elastase (Elastin Products Co.) solubilized at 1000 uI/ml of distilled water, and frozen in aliquots of 50 μl at -20° C.
Substrate: methoxysuccinyl-L-alanyl-L-alanyl-propyl-valine paranitroanilide (Sigma chimie).
Buffer: Tris 0.1M; NaCl 0.5M; pH=7.8.
10 μl of the product to be tested or of the solvent (concentrated×100)
10 μl of human sputum leucocyte elastase diluted to 1/10th
Stirring and incubation for 15 min at 37° C.
The reaction is started by addition of 10 μl of substrate.
The cell is introduced into the spectro- photometer, and the optical density is recorded as a function of time at 410 nm at 37° C.
The initial rate is measured for each product concentration (or solvent control) studied.
Percentages of inhibition with respect to the solvent control are calculated:
Percentage of inhibition=100×(control rate-rate of the product
The inhibitory concentrations 50 (IC50) are calculated from the percentages of inhibition by simple linear regression.

Compound: 4-{[3-(3-Azabicyclo[3.3.0]octane)ureido]sulpfonyl}benzoyl-(S)-Val-(S)-Abo-(R,S)-Val-CF3 [Example 2]
- Inhibition (%) of hemorrhaging [1]: 57%
- IC50 [2]: 25 nM

Compound: CC(C)C(NC(=O)[C@@H]1C2CCC(CC2)N1C(=O)[C@@H](NC(=O)c1ccc(C(=O)NS(=O)(=O)c2ccc(Cl)cc2)cc1)C(C)C)C(=O)C(F)(F)F (single isomer, unassigned) [Example 4]
- Inhibition (%) of hemorrhaging [1]: 70%
- IC50 [2]: 15 nM

Compound: CC(=O)N[C@@H](CSC(C)(C)C)C(=O)NS(=O)(=O)c1ccc(C(=O)N[C@H](C(=O)N2C3CCC(CC3)[C@H]2C(=O)NC(C(=O)C(F)(F)F)C(C)C)C(C)C)cc1 (stereo partly drawn) [Example 18, 4-[S-tert-Butyl-N-acetyl-(S)-cysteinylaminosulfonyl]benzoyl-(S)-Val-(S)-Abo-(R,S)-Val-CF3]
- Inhibition (%) of hemorrhaging [1]: 38%
- IC50 [2]: 19 nM

Compound: CC(C)C(NC(=O)[C@@H]1[C@@H]2CC[C@@H](C2)N1C(=O)[C@@H](NC(=O)c1ccc(C(=O)NS(=O)(=O)c2ccc(Cl)cc2)cc1)C(C)C)C(=O)C(F)(F)F (stereo partly drawn) [Example 22, 4-(4-Chlorophenylsulfonylaminocarbonyl)benzoyl-(S)-Val-(1S,3S,4R)-Abh-(R,S)-Val-CF3]
- Inhibition (%) of hemorrhaging [1]: 65%
- IC50 [2]: 19 nM

Compound: CC(C)C(NC(=O)[C@@H]1[C@@H]2CC[C@@H](C2)N1C(=O)[C@@H](NC(=O)c1ccc(S(=O)(=O)NC(=O)c2ccccc2C(=O)N2CCSC2)cc1)C(C)C)C(=O)C(F)(F)F (stereo partly drawn) [Example 23, 4-[2-[(1,3-Thiazolidin-3-yl)carbonyl]benzoylaminosulfonyl]benzoyl-(S)-Val-(lS,3S,4R)-Abh-(R,S)-Val-CF3]
- Inhibition (%) of hemorrhaging [1]: 61%
- IC50 [2]: 30 nM

Compound: CC(C)C(NC(=O)[C@@H]1C2CCC(CC2)N1C(=O)[C@@H](NC(=O)c1ccc(S(=O)(=O)NC(=O)C(C2CC2)C2CC2)cc1)C(C)C)C(=O)C(F)(F)F (stereo partly drawn) [Example 24, 4-[(Dicyclopropylmethyl)carbonylaminosulfonyl]benzoyl-(S)-Val-(S)-Abo-(R,S)-Val-CF3]
- Inhibition (%) of hemorrhaging [1]: 46%
- IC50 [2]: 25 nM

Compound: CC(C)C(NC(=O)c1ccc(S(=O)(=O)NC(=O)Nc2ccc(Cl)cc2)cc1)C(=O)N1C2CCC(CC2)C1C(=O)NC(C(=O)C(F)(F)F)C(C)C [Example 25, 4-(4-Chlorophenylureidosulfonyl)benzoyl-(S)-Val-(S)-Abo-(R,S)-Val-CF3]
- Inhibition (%) of hemorrhaging [1]: 63%
- IC50 [2]: 34 nM

Compound: CC(C)C(NC(=O)[C@@H]1C[C@@H]2CCCC[C@@H]2N1C(=O)[C@@H](NC(=O)c1ccc(S(=O)(=O)NC(=O)Nc2ccc(Cl)cc2)cc1)C(C)C)C(=O)C(F)(F)F (stereo partly drawn) [Example 26, 4-(4-Chlorophenylureidosulfonyl)benzoyl-(S)-Val-(2S,3aS,7aS)-Phi-(R,S)-Val-CF3]
- Inhibition (%) of hemorrhaging [1]: 64%
- IC50 [2]: 31 nM

Compound: CC(C)C(NC(=O)[C@@H]1C[C@@H]2CCCC[C@@H]2N1C(=O)[C@@H](NC(=O)c1ccc(S(=O)(=O)NC(=O)C(C2CC2)C2CC2)cc1)C(C)C)C(=O)C(F)(F)F (stereo partly drawn) [Example 27, 4-[(Dicyclopropylmethyl)carbonylaminosulfonyl]benzoyl-(S)-Val-(2S,3aS,7aS)-Phi-(R,S)-Val-CF3]
- Inhibition (%) of hemorrhaging [1]: 38%
- IC50 [2]: 29 nM

Compound: CC(C)C(NC(=O)c1ccc(S(=O)(=O)NC(=O)C23CC4CC(CC(C4)C2)C3)cc1)C(=O)N1C2CCC(CC2)C1C(=O)NC(C(=O)C(F)(F)F)C(C)C [Example 28, 4-[(Adamant-1-yl)carbonylaminosulfonyl]benzoyl-(S)-Val-(S)-Abo-(R,S)-Val-CF3]
- Inhibition (%) of hemorrhaging [1]: 57%
- IC50 [2]: 47 nM

Compound: CC(C)C(NC(=O)[C@@H]1C[C@@H]2CCCC[C@@H]2N1C(=O)[C@@H](NC(=O)c1ccc(S(=O)(=O)NC(=O)Cc2cc(C(C)(C)C)c(O)c(C(C)(C)C)c2)cc1)C(C)C)C(=O)C(F)(F)F (stereo partly drawn) [Example 29, 4-[(3,5-Di-tert-butyl-4-hydroxybenzyl)carbonylaminosulfonyl]benzoyl-(S)-Val-(2S,3aS,7aS)-Phi-(R,S)-Val-CF3]
- Inhibition (%) of hemorrhaging [1]: 63%
- IC50 [2]: 38 nM

Compound: CC(C)C(NC(=O)[C@@H]1C[C@@H]2CCCC[C@@H]2N1C(=O)[C@@H](NC(=O)c1ccc(S(=O)(=O)NC(=O)c2ccc(CCN3CCC4(CC3)CNC(=O)O4)cc2)cc1)C(C)C)C(=O)C(F)(F)F (stereo partly drawn) [Example 32, 4-{4-[2-(1-Oxa-2-oxo-3,8-diazaspiro[4.5]dec-8-yl)ethyl]benzoylaminosulfonyl}benzoyl-(S)-Val-(2S,3aS,7aS)-Phi-(R,S)-Val-CF3]
- Inhibition (%) of hemorrhaging [1]: 42%
- IC50 [2]: 42 nM

Compound: CCOCC(O)COc1cc(C(=O)NS(=O)(=O)c2ccc(C(=O)N[C@H](C(=O)N3[C@H](C(=O)NC(C(=O)C(F)(F)F)C(C)C)C[C@@H]4CCCC[C@@H]43)C(C)C)cc2)ccc1OC (stereo partly drawn) [Example 35, 4-{[4-Methoxy-3-(3-ethoxy-2-hydroxypropoxy)-benzoyl]aminosulfonyl}benzoyl-(S)-Val-(2S,3aS,7aS)-Phi-(R,S)-Val-CF3]
- Inhibition (%) of hemorrhaging [1]: 47%
- IC50 [2]: 37 nM

Compound: CC(C)C(NC(=O)[C@@H]1C[C@@H]2CCCC[C@@H]2N1C(=O)[C@H](CCCCNC(=O)Cc1cc(C(C)(C)C)c(O)c(C(C)(C)C)c1)NC(=O)c1ccc(C(=O)NS(=O)(=O)c2ccc(Cl)cc2)cc1)C(=O)C(F)(F)F (stereo partly drawn) [Example 41, 4-(4-Chlorophenylsulfonylaminocarbonyl)benzoyl-[N-(3,5-di-tert-butyl-4-hydroxyphenyl)acetyl]-(S)-Lys-(2S,3aS,7aS)-Phi-(R,S)-Val-CF3]
- Inhibition (%) of hemorrhaging [1]: 41%
- IC50 [2]: 70 nM
